Test results: patent US20260176594A1, “REDUCING DISEASE TRANSMISSION OF VECTOR BORNE DISEASES” (priority 2022, published 2026)

System: Zika virus
Assay: Zika virus replication in Aedes aegypti mosquitoes fed blood meal with harmane, plaque assay on VERO cells
Type: in vivo
Conditions: harmane in infectious blood meal, 7 days; for Zika virus PFU/mL in mosquito abdomens: vs control group
Procedure: 3-to-5-day-old Aedes aegypti strain SBE mosquitoes were fed via membrane feeders on a blood meal (rabbit blood) containing approximately 10^7 PFU/ml Zika virus and the indicated concentrations of harmane dissolved in dimethyl sulphoxide (DMSO). The bloodmeal fed to the control group contained no harmane. Fully engorged mosquitoes were selected and kept on a 10% sucrose diet. In total, 30 mosquitoes were analyzed per treatment.
After 7 days, the abdomens of mosquitoes were dissected and placed in 2 mL tubes containing glass beads and 300 μL of DMEM medium. Samples were homogenized. A 1:10 dilution series of this solution was dispersed onto 96-well plates containing VERO cells. 5-6 days later, the medium was discarded and viral plaques were fixed and developed with staining reagent (1% crystal violet in […] solution) at room temperature for 1 h. 5
Plates were rinsed with distilled water and air-dried. Plaques were counted and multiplied by the corresponding dilution factors to calculate the number of plaque-forming units (PFUs). Horizontal red lines are median values. […] Statistical differences were assessed using the nonparametric Mann-Whitney test.

For `Cc1nccc2c1[nH]c1ccccc12` [harmane, 1-Methyl-9H-pyrido[3,4-b]indole], the “statistical difference of treated groups compared to the DMSO-control (Mann-Whitney)” value was “No significant differences”, the “Zika virus PFU/mL in mosquito abdomens” value was “reduced level” and the “Zika virus PFU/mL in mosquito abdomens” value (listed as Harmane) was “dose dependent decrease”.
